The values that follow are results of earlier work, collected in PMC7982506 (Acta Pharmaceutica Sinica. B, 2020).

One series addresses T1, SHP2-WT (Homo sapiens, UniProt Q06124).
T1 sequence (Q06124 1-535): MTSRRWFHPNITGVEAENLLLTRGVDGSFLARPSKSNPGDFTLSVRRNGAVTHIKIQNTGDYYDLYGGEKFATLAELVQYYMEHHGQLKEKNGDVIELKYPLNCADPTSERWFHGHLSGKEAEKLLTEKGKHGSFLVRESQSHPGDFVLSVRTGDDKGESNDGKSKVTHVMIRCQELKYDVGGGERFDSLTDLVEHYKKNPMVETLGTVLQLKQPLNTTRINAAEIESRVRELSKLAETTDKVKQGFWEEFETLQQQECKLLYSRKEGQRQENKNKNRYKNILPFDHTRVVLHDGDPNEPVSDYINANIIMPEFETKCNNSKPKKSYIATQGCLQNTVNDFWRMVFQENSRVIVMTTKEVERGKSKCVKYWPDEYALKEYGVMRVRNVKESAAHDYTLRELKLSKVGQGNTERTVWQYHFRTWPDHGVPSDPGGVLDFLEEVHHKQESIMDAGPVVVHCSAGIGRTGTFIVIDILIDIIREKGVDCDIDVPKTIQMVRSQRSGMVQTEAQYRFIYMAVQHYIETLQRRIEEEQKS
Particulars: read-out: EC50 of p-IRS1 peptide for SHP2-WT, previously reported.

Another series addresses T2, SHP2-PTP (Homo sapiens, UniProt Q06124).
T2 sequence (Q06124 237-535): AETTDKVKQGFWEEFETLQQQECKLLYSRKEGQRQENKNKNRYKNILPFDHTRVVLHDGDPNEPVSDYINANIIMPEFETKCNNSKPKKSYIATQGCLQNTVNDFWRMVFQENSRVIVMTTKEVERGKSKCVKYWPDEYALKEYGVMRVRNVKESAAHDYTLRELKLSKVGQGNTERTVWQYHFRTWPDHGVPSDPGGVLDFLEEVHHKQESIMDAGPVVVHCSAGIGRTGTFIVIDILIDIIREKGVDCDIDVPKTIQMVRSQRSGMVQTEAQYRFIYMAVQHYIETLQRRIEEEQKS
The settings on record: read-out: IC50 reported previously.

For a further series, the system named is p-ERK. Particulars: versus SHP099.
A further series deals with cell growth. Particulars: versus SHP099.

As a reminder, the EC50 is the concentration needed to bring the measured effect to its halfway point. In the case of “H2N-LN(pY)IDLDLV(dPEG8)LST(pY)ASINFQK-amide [p-IRS1 peptide]”, the EC50 on SHP2-WT was 0.25 µM.

Usually IC50 stands for the concentration needed to halve the response being measured. With `[Na+].[Na+].[Na+].[O]=[V]([O-])([O-])[O-]` [Na3VO4], the IC50 at SHP2-PTP was 10 µM.

On to `Cc1ncsc1-c1ccc([C@H](C)NC(=O)[C@@H]2C[C@@H](O)CN2C(=O)[C@@H](NC(=O)CCCCCCCCN2CCN(C(=O)CCC(=O)Nc3cccc(Sc4ncc(N5CCC(C)(N)CC5)nc4N)c3Cl)CC2)C(C)(C)C)cc1` [SHP2-D26], for which the “fold more potent than SHP099 in inhibition of p-ERK” value with p-ERK is listed as 30 fold. Further, in the series on cell growth, the “fold more potent than SHP099 in inhibition of cell growth” value is 30 fold.
